Test results from patent US10954214B2 (Janssen Pharmaceutica NV, priority 2016, dated 2021).

Assays:
TMD8 cells = assay: 4-day proliferation assay, TMD8; format: cell-based; settings: Homo sapiens, 96 h, 4 days incubation, CellTiterGLO, read-out: Anti-proliferation: TMD-8 IC50
Method in brief: (§1)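 TMD8 and OCI-Ly3 cells were seeded at 10,000 per well and grown 4 days at 37° C, 5% CO2 without beta-mercaptoethanol. Viability was read by CellTiter-Glo luminescence. IC50 and Hill slope were fitted relative to the low control median.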

[1] = test system: IL10 secretion by TMD8 ABC-DLBCL cells; assay: Human IL10 Mesoscale assay (TMD-8); format: cell-based; settings: Homo sapiens, TMD8; TMD-8 cells, 24 h
Method in brief: (§2)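 Compounds tested from 15 μM to 58.6 nM (twofold, 9 concentrations) on 100,000 cells per well over 24 h at 37° C, without beta-mercaptoethanol. Secreted cytokine in supernatant detected by MSD electrochemiluminescence; scaling used DMSO as maximum and RN486 as full inhibition.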

[2] = test system: IL6 secretion by TMD8 ABC-DLBCL cells; assay: Human IL6 Mesoscale assay (TMD-8); format: cell-based; settings: Homo sapiens, TMD8; TMD-8 cells, 24 h
Method in brief: as §2

[3] = biological target: full-length MALT1 protein (Strep-MALT1(1-824)-His) (Homo sapiens (Human), UniProt Q9UDY8); assay: MALT1 Biochemical Protease Assay (Ac-LRSR-AMC substrate); settings: 10 nM FL MALT1, 200 μM Ac-LRSR-AMC, 4 h at RT; read-out: MALT1_Biochemical activity (Ac-LRSR-amc) IC50
Method in brief: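 Full-length MALT1 pre-incubated with compounds (30 μM to 0.5 nM, 11 threefold steps) for 50 min at RT. After Ac-LRSR-AMC was added, the reaction ran 4 h at RT and AMC fluorescence was read. IC50 and Hill slope from curve fitting against no-enzyme and no-compound controls.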

OCI-Ly3 cells = assay: 4-day proliferation assay, OCI-Ly3; format: cell-based, human; settings: Homo sapiens, 96 h, 4 days incubation, CellTiterGLO, read-out: Anti-proliferation: OCI-LY-3 IC50
Method in brief: as §1

Jurkat cells = assay: PMA Induced IL2 Production In Jurkat Cells; format: cell-based; settings: Homo sapiens, PMA/Ionomycin, 20 h, read-out: IL-2 prod h Jurkat PMA IC50

Chain of full-length MALT1 protein (Strep-MALT1(1-824)-His) (Q9UDY8 whole entry): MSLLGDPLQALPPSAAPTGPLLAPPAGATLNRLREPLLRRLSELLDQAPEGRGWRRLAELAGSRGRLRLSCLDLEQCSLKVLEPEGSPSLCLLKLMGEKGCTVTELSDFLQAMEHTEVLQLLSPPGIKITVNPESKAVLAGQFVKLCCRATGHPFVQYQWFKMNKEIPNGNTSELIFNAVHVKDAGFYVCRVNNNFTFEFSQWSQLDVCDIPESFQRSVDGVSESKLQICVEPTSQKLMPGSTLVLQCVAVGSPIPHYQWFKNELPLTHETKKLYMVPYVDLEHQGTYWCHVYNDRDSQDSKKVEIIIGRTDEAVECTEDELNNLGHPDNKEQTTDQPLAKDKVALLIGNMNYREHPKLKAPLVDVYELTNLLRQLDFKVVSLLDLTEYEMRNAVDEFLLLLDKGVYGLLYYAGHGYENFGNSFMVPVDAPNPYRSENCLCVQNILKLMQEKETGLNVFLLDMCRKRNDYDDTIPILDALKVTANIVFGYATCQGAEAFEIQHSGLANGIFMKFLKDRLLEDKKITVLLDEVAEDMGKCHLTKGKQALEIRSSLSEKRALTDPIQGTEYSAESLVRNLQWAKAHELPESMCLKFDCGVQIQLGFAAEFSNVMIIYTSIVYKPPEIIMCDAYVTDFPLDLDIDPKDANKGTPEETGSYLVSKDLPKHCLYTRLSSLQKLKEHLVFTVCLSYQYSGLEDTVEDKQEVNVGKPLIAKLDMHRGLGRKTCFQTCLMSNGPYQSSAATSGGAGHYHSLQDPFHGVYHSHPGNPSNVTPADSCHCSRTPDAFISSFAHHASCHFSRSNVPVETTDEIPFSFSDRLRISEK

IC50 [1] [nM] | IC50 [2] [nM] | IC50 [3] [nM] | IC50 (OCI-Ly3 cells) [nM] | IC50 (Jurkat cells) [nM] | SMILES | IC50 (TMD8 cells) [nM]
~2140 | ~830 | 631 | 300 | 450 | CN1CCN(C(=O)c2ncc(NC(=O)c3cnn(-c4cncc5ccccc45)c3C(F)(F)F)cc2Cl)CC1 [Cpd 48, N-(5-chloro-6-(4-methylpiperazine-1-carbonyl)pyridin-3-yl)-1-(isoquinolin-4-yl)-5-(trifluoromethyl)-1H-pyrazole-4-carboxamide] | 16200
851 | ~2090 | 891 | 1580 | 300 | N#Cc1ncc(NC(=O)c2cnn(-c3cncc4ccccc34)c2C(F)(F)F)cc1F [Cpd 41, N-(6-cyano-5-fluoropyridin-3-yl)-1-(isoquinolin-4-yl)-5-(trifluoromethyl)-1H-pyrazole-4-carboxamide] | > 20000
32 | ~46 | 56 | 630 | 22 | O=C(Nc1cnc(-n2cccn2)c(Cl)c1)c1cnn(-c2cncc3ccccc23)c1C(F)(F)F [Cpd 46, N-(5-Chloro-6-(1H-pyrazol-1-yl)pyridin-3-yl)-1-(isoquinolin-4-yl)-5-(trifluoromethyl)-1H-pyrazole-4-carboxamide] | 9330
7 | ~11 | 9 | ~220 | 16 | O=C(Nc1cnc(-n2nccn2)c(Cl)c1)c1cnn(-c2cccc3occc23)c1C(F)(F)F [Cpd 34, 1-(Benzofuran-4-yl)-N-(5-chloro-6-(2H-1,2,3-triazol-2-yl)pyridin-3-yl)-5-(trifluoromethyl)-1H-pyrazole-4-carboxamide] | ~12000
